Reference: BindingDB's records for doi:10.1016/j.bioorg.2017.05.004 (The Affiliated Hospital of Qingdao University, 2017)

Target: T1, Troponin C, slow skeletal and cardiac muscles [4-85] (Human, UniProt P63316)
T1 construct: 4-85
Assay: Fluorescence Polarization Assay
Settings: pH 7; 14 °C
Protocol: The fluorescence polarization assays were performed at 298 K following a protocol modified from previously reported protocol [Zhuo et al., Mol. Biosyst., 12:2532-2540]. Synthetic peptides were labeled with fluorescein. Titrations were conducted by monitoring polarization as a function of increasing amounts of the proteins of TnC N-terminal domain added to 20 nM fluorescein-peptides in a buffer 50 mM HEPES, pH 7.0, 0.1% Tween 20, 200 mM NaCl and 15 mM DTT.

T1 sequence (P63316 4-85): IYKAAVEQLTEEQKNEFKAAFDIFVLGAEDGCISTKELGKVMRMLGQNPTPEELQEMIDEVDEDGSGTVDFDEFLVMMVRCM

Row | Kd | Structure (SMILES)
1 | 15.7 µM | CSCC[C@H](NC(=O)[C@H](C)NC(=O)[C@H](CC(=O)O)NC(=O)[C@H](C)N)C(=O)N[C@@H](CCSC)C(=O)N[C@@H](CCC(N)=O)C(=O)N[C@@H](C)C(=O)N[C@@H](CC(C)C)C(=O)N[C@@H](CC(C)C)C(=O)NCC(=O)N[C@@H](C)C(=O)N[C@@H](CCCNC(=N)N)C(=O)O [ADAMMQALLGAR]
2 | 4.2 µM | CC[C@H](C)[C@H](N)C(=O)N[C@@H](CO)C(=O)N[C@@H](C)C(=O)N[C@@H](CC(=O)O)C(=O)N[C@@H](C)C(=O)N[C@@H](CCSC)C(=O)N[C@@H](CCSC)C(=O)N[C@@H](CCC(N)=O)C(=O)N[C@@H](C)C(=O)N[C@@H](CC(C)C)C(=O)N[C@@H](CC(C)C)C(=O)NCC(=O)N[C@@H](C)C(=O)N[C@@H](CCCNC(=N)N)C(=O)N[C@@H](C)C(=O)N[C@@H](CCCCN)C(=O)N[C@@H](CCC(=O)O)C(=O)N[C@@H](CO)C(=O)O [ISADAMMQALLGARAKES]
